Assay results from patent US8846710B2, “Method of preferentially inducing the biosynthesis of interferon” (3M Innovative Properties Company, priority 2005, dated 2014).

Assays:
interferon (α) (IFN-α) = assay: Cytokine induction in human cells: IFN-α secreted by PBMC into culture media (ELISA); format: cell-based; details: for Minimum Effective Concentration IFN / Maximal Response IFN: human PBMC, median where tested in more than one experiment; for Maximal Response (pg/mL) IFN: Table 7, maximal response in dose response curve, background-subtracted, reference-adjusted, median
Outline: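 Human donor PBMC, 2×10^6 cells/mL final in RPMI complete, treated 18–24 h at 37 °C, 5% CO2 with 3-fold dilutions (usually 30-0.014 μM), DMSO ≤1%. Supernatant IFN-α by multi-subtype sandwich ELISA, background-subtracted and reference-adjusted; minimum effective concentration = lowest concentration exceeding usually 20 pg/mL.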

[1] = tested on: tumor necrosis factor (α) (TNF-α); assay: Cytokine induction in human cells: TNF-α secreted by PBMC into culture media (ORIGEN M-Series immunoassay); format: cell-based; set-up: key to Maximal Response (pg/mL) TNF / Maximal Response TNF: If any negative values result from background subtraction, the reading is reported as “*”, and is noted as not reliably detectable; details: for Minimum Effective Concentration TNF / Maximal Response TNF: human PBMC; for Minimum Effective Concentration TNF: median where tested in more than one experiment
Outline: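 Human donor PBMC (final 2×10^6 cells/mL) were incubated 18 to 24 hours at 37° C with compound, usually 30-0.014 μM in 3-fold steps, ≤1% DMSO. Supernatant TNF-α was measured by ORIGEN immunoassay, background-subtracted and reference-adjusted; minimum effective concentration was the lowest concentration exceeding a fixed cytokine threshold.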

[2] = Table 12, median, * = below the experimental background of 40 pg/mL
[3] = Table 11, median, * = TNF below experimental background of 40 pg/mL

Compound | Maximal Response IFN (interferon (α) (IFN-α); Table 11) [pg/mL] | Maximal Response TNF [1, 3] | Minimum Effective Concentration IFN (interferon (α) (IFN-α); Table 11) [µM] | Minimum Effective Concentration TNF ([1]; Table 11) [µM] | further results
CCOCc1nc2c(N)nc3cccnc3c2n1CC(C)(C)NS(C)(=O)=O [Analog 130, N-[2-(4-amino-2-ethoxoxymethyl-1H-imidazo[4,5-c][1,5]naphthyridin-1-yl)-1,1-dimethylethyl]methanesulfonamide] |  |  |  |  | Minimum Effective Concentration IFN (interferon (α) (IFN-α); Table 12): 0.04 µM; Minimum Effective Concentration TNF ([1]; Table 12): 0.37 µM
Cc1nc2c(N)nc3cccnc3c2n1CC(C)(C)F [Analog 131, 1-(2-fluoro-2-methylpropyl)-2-methyl-1H-imidazo[4,5-c][1,5]naphthyridin-4-amine] |  |  |  |  | Maximal Response IFN (interferon (α) (IFN-α); Table 12): 2120 pg/mL; Maximal Response TNF [1, 2]: 1679 pg/mL
CCOCc1nc2c(N)nc3cccnc3c2n1CC(C)C [Analog 132, 2-ethoxymethyl-1-(2-methylpropyl)-1H-imidazo[4,5-c][1,5]naphthyridin-4-amine] |  |  |  |  | Maximal Response IFN (interferon (α) (IFN-α); Table 12): 1524 pg/mL; Maximal Response TNF [1, 2]: 3160 pg/mL
Cc1nc2c(N)nc3cccnc3c2n1CC(C)C [Analog 133, 2-methyl-1-(2-methylpropyl)-1H-imidazo[4,5-c][1,5]naphthyridin-4-amine] |  |  |  |  | Maximal Response IFN (interferon (α) (IFN-α); Table 12): 1117 pg/mL; Maximal Response TNF [1, 2]: 699 pg/mL
Cc1ccc(S(=O)(=O)NCCCn2c(CCO)nc3c(N)nc4ccccc4c32)cc1 [Example 1, N-{3-[4-Amino-2-(2-hydroxyethyl)-1H-imidazo[4,5-c]quinolin-1-yl]propyl}-4-methylbenzenesulfonamide] | 1072 | 143 pg/mL |  |  | 
CS(=O)(=O)NCCCCn1c(CCO)nc2c(N)nc3ccccc3c21 [Example 3, N-{4-[4-Amino-2-(2-hydroxyethyl)-1H-imidazo[4,5-c]quinolin 1-yl]butyl}methanesulfonamide] | 2340 | * |  |  | 
CC(C)(Cn1c(CO)nc2c(N)nc3ccccc3c21)NC(=O)C1CCCCC1 [Example 5, N-[2-(4-Amino-2-hydroxymethyl-1H-imidazo[4,5-c]quinolin-1-yl)-1,1-dimethylethyl]cyclohexanecarboxamide] | 17274 | 1130 pg/mL |  |  | 
CC(C)(Cn1c(CCO)nc2c(N)nc3ccccc3c21)NS(C)(=O)=O [Example 6, N-{2-[4-Amino-2-(2-hydroxyethyl)-1H-imidazo[4,5-c]quinolin-1-yl]-1,1-dimethylethyl}methanesulfonamide] | 6527 | * |  |  | Maximal Response (pg/mL) IFN (interferon (α) (IFN-α)): 7521 pg/mL
CC(C)(Cn1c(CO)nc2c(N)nc3ccccc3c21)NS(C)(=O)=O [Example 7, N-[2-(4-Amino-2-hydroxymethyl-1H-imidazo[4,5-c]quinolin-1-yl)-1,1-dimethylethyl]methanesulfonamide] | 1670 | 154 pg/mL |  |  | Maximal Response (pg/mL) IFN (interferon (α) (IFN-α)): 2250 pg/mL; Maximal Response (pg/mL) TNF ([1]; Table 7, maximal response in dose response curve, background-subtracted, reference-adjusted, median): 121 pg/mL
Cc1ccc(C)c(S(=O)(=O)NCCCCn2c(CCO)nc3c(N)nc4ccccc4c32)c1 [Example 36] | 3316 | * | 10 | >30 | 
CC(C)NC(=O)NCCCn1c(CCO)nc2c(N)nc3ccccc3c21 [Example 99] | 21829 | * | 0.37 | >30 | 
Nc1nc2ccccc2c2c1nc(CCO)n2CCCCNC(=O)c1nccc2ccccc12 [Example 111] | 7753 | 983 pg/mL | 0.12 | 1.11 | 
Nc1nc2ccccc2c2c1nc(CCO)n2CCCCNS(=O)(=O)c1ccc(F)cc1 [Example 112] | 8361 | 76 pg/mL | 1.11 | 30 | 
NCCCCn1c(CCO)nc2c(N)nc3ccccc3c21 [Example 114] | 23 | * | 30 | >30 | 
Nc1nc2ccccc2c2c1nc(CCO)n2CCCCNC(=O)N1CCOCC1 [Example 115] | 8361 | * | 1.11 | >30 | 
Nc1nc2ccccc2c2c1nc(CCO)n2CCCCNC(=O)c1cnc2ccccc2c1 [Example 116] | 8361 | 1112 pg/mL | 0.37 | 30 | 
Nc1nc2ccccc2c2c1nc(CCO)n2CCCCNC(=O)c1cnc2ccccc2n1 [Example 117] | 5520 | 1938 pg/mL | 0.37 | 3.33 | 
Nc1nc2ccccc2c2c1nc(CCO)n2CCCCCCCCNC(=O)Nc1ccccc1 [Example 118] | 5177 | * | 0.37 | >30 | 
CS(=O)(=O)NCCCCCCCCn1c(CCO)nc2c(N)nc3ccccc3c21 [Example 119] | 8361 | 693 pg/mL | 0.04 | 3.33 | 
NCCCn1c(CCO)nc2c(N)nc3ccccc3c21 [Example 120] | 5636 | * | 3.33 | >30 | 
Nc1nc2ccccc2c2c1nc(CCO)n2CCCCCCCCNC(=O)c1ccccc1 [Example 121] | 2441 | 180 pg/mL | 0.37 | 3.33 | 
CS(=O)(=O)NCCCn1c(CCO)nc2c(N)nc3ccccc3c21 [Example 122] | 9651 | * | 3.33 | >30 | 
CC(C)(CNC(=O)c1ccccc1)Cn1c(CCO)nc2c(N)nc3ccccc3c21 [Example 124] | 3980 | 1446 pg/mL | 0.12 | 3.33 | 
CS(=O)(=O)CCCCCn1c(CCO)nc2c(N)nc3ccccc3c21 [Example 125] | 8361 | * | 0.37 | >30 | 
CCCCNC(=O)NCCCn1c(CCO)nc2c(N)nc3ccccc3c21 [Example 126] | 8361 | * | 1.11 | >30 | 
Nc1nc2ccccc2c2c1nc(CCO)n2CCCNC(=O)N1CCOCC1 [Example 128] | 75 | * | 30 | >30 | 
CC(C)(CN)Cn1c(CCO)nc2c(N)nc3ccccc3c21 [Example 129] | 2702 | 85 pg/mL | 0.37 | 30 | 
